Test results taken from PubChem BioAssay (NCI).
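Following 48 hours of exposure in 96-well plates, responses at five concentrations were used to interpolate endpoints linearly. GI50: concentration for 50% inhibition of growth. Definition used: TGI = concentration required for complete inhibition of growth.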

How the values were obtained:
Experiment in all cases: inhibition of tumour cell growth, NCI panel, 48 h
[1] = test system: HOP-92 NSCLC
[2] = test system: HL-60(TB) leukemia
[3] = test system: SN12C renal
[4] = test system: BT-549 breast
[5] = test system: NCI/ADR-RES ovarian
[6] = test system: HS 578T breast
[7] = test system: NCI-H226 lung
[8] = test system: OVCAR-5 ovarian
[9] = test system: SNB-19 CNS
[10] = test system: HCC-2998 colon
[11] = test system: MOLT-4 leukemia
[12] = test system: ACHN renal
[13] = test system: KM12 colon
[14] = test system: MCF7 breast
[15] = test system: SF-539 CNS
[16] = test system: PC-3 prostate
[17] = test system: OVCAR-3 ovarian
[18] = test system: OVCAR-4 ovarian
[19] = test system: 786-0 renal
[20] = test system: HCT-15 colon
[21] = test system: NCI-H522 lung
[22] = test system: SK-OV-3 ovarian
[23] = test system: HOP-62 NSCLC
[24] = test system: SK-MEL-2 melanoma
[25] = test system: HT29 colon
[26] = test system: SK-MEL-5 melanoma
[27] = test system: NCI-H460 lung
[28] = test system: RXF 393 renal
[29] = test system: SF-268 CNS
[30] = test system: LOX IMVI melanoma
[31] = test system: A498 renal
[32] = test system: UO-31 renal
[33] = test system: M14 melanoma
[34] = test system: OVCAR-8 ovarian
[35] = test system: SK-MEL-28 melanoma
[36] = test system: DU-145 prostate
[37] = test system: EKVX NSCLC
[38] = test system: NCI-H23 lung
[39] = test system: CCRF-CEM leukemia
[40] = test system: U251 CNS
[41] = test system: IGROV1 ovarian
[42] = test system: SF-295 CNS
[43] = test system: MDA-MB-231 breast
[44] = test system: T-47D breast
[45] = test system: TK-10 renal
[46] = test system: UACC-62 melanoma
[47] = test system: SW-620 colon
[48] = test system: HCT-116 colon
[49] = test system: SNB-75 CNS
[50] = test system: A549 NSCLC
[51] = test system: SR leukemia

CCOC(=O)c1cc(C(=O)c2cc(OC)cc(OC)c2)n2nc(C)ccc12 was tested, and the GI50 [1] was 446 nM, the TGI [1] was over 100000 nM and the GI50 [2] was 248 nM. For the same compound, the TGI [2] was 797 nM, the GI50 [3] was 692 nM and the TGI [3] was over 100000 nM. For the same compound, the GI50 [4] was 1990 nM, the TGI [4] was over 100000 nM and the GI50 [5] was 308 nM. The TGI [5] was 14800 nM, the GI50 [6] was 284 nM and the TGI [6] was over 100000 nM. It also gave a GI50 [7] of over 100000 nM, a TGI [7] of over 100000 nM and a GI50 [8] of 2700 nM. For the same compound, the TGI [8] was over 100000 nM, the GI50 [9] was 752 nM and the TGI [9] was over 100000 nM. For the same compound, the GI50 [10] was 3340 nM, the TGI [10] was over 100000 nM and the GI50 [11] was 527 nM. It also gave a TGI [11] of over 100000 nM, a GI50 [12] of 731 nM and a TGI [12] of over 100000 nM. It also gave a GI50 [13] of 254 nM, a TGI [13] of over 100000 nM and a GI50 [14] of 313 nM. The TGI [14] was over 100000 nM, the GI50 [15] was 349 nM and the TGI [15] was 3020 nM. For the same compound, the GI50 [16] was 317 nM, the TGI [16] was over 100000 nM and the GI50 [17] was 289 nM. It also gave a TGI [17] of 2110 nM, a GI50 [18] of 1450 nM and a TGI [18] of over 100000 nM. For the same compound, the GI50 [19] was 523 nM, the TGI [19] was over 100000 nM and the GI50 [20] was 280 nM. It also gave a TGI [20] of over 100000 nM, a GI50 [21] of 303 nM and a TGI [21] of over 100000 nM. The GI50 [22] was 878 nM, the TGI [22] was over 100000 nM and the GI50 [23] was 691 nM. For the same compound, the TGI [23] was over 100000 nM, the GI50 [24] was 494 nM and the TGI [24] was over 100000 nM. For the same compound, the GI50 [25] was 401 nM, the TGI [25] was over 100000 nM and the GI50 [26] was 276 nM. The TGI [26] was over 100000 nM, the GI50 [27] was 365 nM and the TGI [27] was over 100000 nM. For the same compound, the GI50 [28] was 239 nM, the TGI [28] was 3160 nM and the GI50 [29] was 676 nM. The TGI [29] was over 100000 nM, the GI50 [30] was 493 nM and the TGI [30] was over 100000 nM. It also gave a GI50 [31] of 388 nM, a TGI [31] of over 100000 nM and a GI50 [32] of 698 nM. The TGI [32] was over 100000 nM, the GI50 [33] was 251 nM and the TGI [33] was over 100000 nM. For the same compound, the GI50 [34] was 1090 nM, the TGI [34] was over 100000 nM and the GI50 [35] was over 100000 nM. It also gave a TGI [35] of over 100000 nM, a GI50 [36] of 906 nM and a TGI [36] of over 100000 nM. For the same compound, the GI50 [37] was 975 nM, the TGI [37] was over 100000 nM and the GI50 [38] was 1290 nM. It also gave a TGI [38] of over 100000 nM, a GI50 [39] of 348 nM and a TGI [39] of over 100000 nM. The GI50 [40] was 549 nM, the TGI [40] was over 100000 nM and the GI50 [41] was 943 nM. For the same compound, the TGI [41] was over 100000 nM, the GI50 [42] was 311 nM and the TGI [42] was 38300 nM. For the same compound, the GI50 [43] was 1700 nM, the TGI [43] was over 100000 nM and the GI50 [44] was 501 nM. It also gave a TGI [44] of over 100000 nM, a GI50 [45] of over 100000 nM and a TGI [45] of over 100000 nM. It also gave a GI50 [46] of 477 nM, a TGI [46] of over 100000 nM and a GI50 [47] of 280 nM. For the same compound, the TGI [47] was over 100000 nM, the GI50 [48] was 331 nM and the TGI [48] was over 100000 nM. It also gave a GI50 [49] of 384 nM, a TGI [49] of over 100000 nM and a GI50 [50] of 766 nM. The TGI [50] was over 100000 nM, the GI50 [51] was 75.9 nM and the TGI [51] was over 100000 nM.
